Reference: paper PMC12298104, “mRNA Expression of Two Colon Enzymes in Pre-Pubertal Gilts During a 42-Day Exposure to Zearalenone” (Toxins, 2025)

What was measured:
CYP1A1 gene = assay: CYP1A1 mRNA expression in the ascending and descending colon (qPCR); assay type: in vivo, pre-pubertal gilts; set-up: difference in CYP1A1 gene expression between groups C and E: scale not given here; conditions: for mean CYP1A1 gene expression during the entire experiment (expression ratio vs control at start = 1.00): group E
Procedure: (§1) Group E gilts were given ZEN orally at a dose of 40 μg ZEN/kg BW (Table 1). At the time of designing the experiment, the above value was equivalent to the no-observed-adverse-effect level (NOAEL) stipulated in the EFSA guidelines, which is 10 times higher than the current dose. Animals from group C received a placebo. The experiment lasted 42 days. The ZEN dose was adjusted to the BW of group E animals. Zearalenone was administered in enteric-coated capsules to avoid problems with uneven food intake. On each day of the experiment, the mycotoxin was administered orally before the morning feeding. Feed was used as a vector. Group C gilts received a placebo, i.e., the same gastro-resistant capsules with the vector, but without ZEN. Zearalenone was dissolved in 500 μL of 96% C2H5OH (96% ethyl, SWW 2442-90, Polskie Odczynniki Chemiczne SA, Gliwice, Poland) to obtain the dose needed (adjusted to BW). The obtained solutions were stored at a temperature of 20 °C for 12 h. Pre-pubertal gilts were weighed once a week to adjust ZEN doses to the needs of each animal. Three gilts from each experiment group were killed on day 7 (1st week of exposure), 14 (2nd week of exposure), 21 (3rd week of exposure), 28 (4th week of exposure), 35 (5th week of exposure), and 42 (6th week of exposure). On each of the above dates, the animals were euthanized by intravenous administration of sodium pentobarbital (Fatro, Ozzano Emilia, BO, Italy). Tissue samples (approx. 1.0 cm × 1.5 cm) from the middle parts of both examined colon sections were collected immediately after cardiac arrest. Samples were washed with phosphate buffer and prepared for toxicological analyses and gene expression assessment. Laboratory analyses were conducted within one month after tissue sampling.
(§2) Colon tissue samples were collected immediately after cardiac arrest. According to the manufacturer’s instructions (Sigma-Aldrich, Taufkirchen, Germany), samples were stored in RNAlater solution.
(§3) According to the manufacturer’s protocol, total RNA was extracted from tissues preserved in RNAlater (ca. 20 mg per sample; […] in each group) using the Total RNA Mini kit (A&A Biotechnology, Gdynia, Poland). RNA samples were incubated in ribonuclease-free DNAse I (Roche Diagnostics, Mannheim, Germany) to prevent contamination with genomic DNA. Overall RNA quality and purity from all samples were assessed using a BioPhotometer (Eppendorf, Germany) and the results were used for cDNA synthesis using the RevertAid™ First Strand cDNA Synthesis Kit (Fermentas, Burlington, ON, Canada). According to the manufacturer’s protocol, the reaction was performed using a cDNA synthesis reaction mixture for each sample, which consisted of 1 µg of total RNA and 0.5 µg of oligo (dT)18 primers. The first synthesized cDNA chain was stored at −20 °C pending further analysis.
Real-time PCR primers for target mRNA were designed using the Primer-BLAST tool based on reference species (Table 4). Real-time PCR was performed on an ABI 7500 Real-Time PCR system (Applied Biosystems, Foster City, CA, USA) in single plex mode; further procedures were performed according to the manufacturer’s instructions. Each PCR reaction tube contained 10 μL of the FastStart SYBR Green Master ROX mix (Roche Diagnostics), 0.25–0.5 μM of each primer (forward and reverse; Table 4), and 1 μL of the previously synthesized cDNA as a template, supplemented with PCR-grade H2O to a final volume of 20 μL. The reaction was performed under the following standard thermal conditions: 95 °C for 10 min, followed by 45 cycles of 95 °C for 15 s and 60 °C for 1 min. Negative water controls (NTCs) were included to rule out cross-contamination. The quality of PCR products was verified by melting curve analysis, followed by agarose gel electrophoresis. The specificity of the designed primer pairs was confirmed by sequencing the obtained PCR products ([…]). […]

[1] = Concentrations of ZEN, α-ZEL and β-ZEL in colon tissue (immunoaffinity extraction, LC-MS/MS); assay type: in vivo, pre-pubertal gilts; conditions: for difference in mean ZEN levels between ascending and descending colon / difference in ZEN concentration in the descending colon: p ≤ 0.01; for ZEN metabolites in the distal colon: gilts given 40 μg ZEN/kg BW orally daily, 42 days
Procedure: as §1
Zearalenone, α-ZEL, and β-ZEL were extracted from tissue samples using immunoaffinity columns (Zearala-TestTM Zearalenone Testing System, G1012, VICAM, Watertown, MA, USA) according to the manufacturer’s instructions. The eluates were placed in a water bath at 50 °C and evaporated in nitrogen stream. Until chromatographic analysis, the dry residues were stored at −20 °C. The results were verified by mass spectrometry and the procedure was monitored using internal standards.
ZEN, α-ZEL, and β-ZEL tissue concentrations were determined using an Agilent 1260 liquid chromatograph (LC) and an Agilent 6470 mass spectrometer (MS). The prepared samples were analyzed using an Agilent ZORBAX high-resolution HPLC column (Agilent Eclipse Plus C18; 2.1 × 50 mm, 1.8 µm) in a gradient elution program. The mobile phase consisted of 0.1% (v/v) formic acid dissolved in water (solvent A) and 0.1% (v/v) formic acid dissolved in acetonitrile (solvent B). The gradient program began with 20% B, which was increased to 100% B after 4.0 min and decreased to 20% B after 0.1 min.
Mycotoxins were quantified using external standards and were expressed in ppb (ng/mL). Calibration standards are fitted to the detector to eliminate detector influences that may reduce test sensitivity. Following the procedure described for the remaining samples, calibration standards were dissolved in the matrix samples (matrix-matched calibration). The material for the preparation of calibration standards was free from mycotoxins. The signal-to-noise ratio (3:1) was […] for ZEN, α-ZEL, and β-ZEL. The LOQ was defined as three times the LOD.
Electrospray ionization (ESI) mass spectrometry was performed in negative ion mode. MS/MS indices were optimized for all compounds. Using a six-level calibration curve, linearity was assessed.
The results were statistically processed at the Department of Discrete Mathematics and Theoretical Computer Science, Faculty of Mathematics and Computer Science of the University of Warmia and Mazury in Olsztyn. […]

[2] = Clinical signs during the 42-day exposure; assay type: in vivo, pre-pubertal gilts; conditions: 40 μg ZEN/kg BW orally daily for 42 days
Procedure: as §1, with “On each of the above dates, the animals were euthanized by intravenous administration of sodium pentobarbital (Fatro, Ozzano Emilia, BO, Italy). Tissue samples (approx. 1.0 cm × 1.5 cm) from the middle parts of both examined colon sections were collected immediately after cardiac arrest. Samples were washed with phosphate buffer and prepared for toxicological analyses and gene expression assessment. Laboratory analyses were conducted within one month after tissue sampling.” left out

[3] = set-up: method as in PMID 25283475; conditions: value at the time of designing the experiment; 10 times higher than the current dose; cited from earlier work
[4] = cited from earlier work
GSTπ1 gene = assay: GSTπ1 mRNA expression in the ascending and descending colon (qPCR); assay type: in vivo, pre-pubertal gilts; conditions: for difference in GSTπ1 gene expression between groups C and E: p ≤ 0.05; for average expression of the GSTπ1 gene during the entire experiment (expression ratio vs control at start = 1.00): group E
Procedure: as §1, §2, §3
Real-time PCR primers for target mRNA were designed using the Primer-BLAST tool based on reference species (Table 4). Real-time PCR was performed on an ABI 7500 Real-Time PCR system (Applied Biosystems, Foster City, CA, USA) in single plex mode; further procedures were performed according to the manufacturer’s instructions. Each PCR reaction tube contained 10 μL of the FastStart SYBR Green Master ROX mix (Roche Diagnostics), 0.25–0.5 μM of each primer (forward and reverse; Table 4), and 1 μL of the previously synthesized cDNA as a template, supplemented with PCR-grade H2O to a final volume of 20 μL. […]

C[C@H]1CCCC(=O)CCC/C=C/c2cc(O)cc(O)c2C(=O)O1 [ZEN, Zearalenone]
difference in CYP1A1 gene expression between groups C and E (CYP1A1 gene; ascending colon, week 4, p ≤ 0.01): 0.98
difference in CYP1A1 gene expression between groups C and E (CYP1A1 gene; ascending colon, week 5, p ≤ 0.01): 1.16
difference in CYP1A1 gene expression between groups C and E (CYP1A1 gene; descending colon, week 1, higher in group C, p ≤ 0.01): 0.41
difference in CYP1A1 gene expression between groups C and E (CYP1A1 gene; descending colon, week 2, higher in group C, p ≤ 0.05): 0.14
difference in CYP1A1 gene expression between groups C and E (CYP1A1 gene; descending colon, week 3, higher in group E, p ≤ 0.05): 0.13
difference in CYP1A1 gene expression between groups C and E (CYP1A1 gene; descending colon, week 5, higher in group C, p ≤ 0.05): 0.24
mean CYP1A1 gene expression during the entire experiment (expression ratio vs control at start = 1.00) (CYP1A1 gene; ascending colon, group C 0.99): 0.73
mean CYP1A1 gene expression during the entire experiment (expression ratio vs control at start = 1.00) (CYP1A1 gene; descending colon, group C 0.57): 0.43
ZEN strength in the ascending colon, on average ([1]; 40 μg ZEN/kg BW orally daily, average over each week of exposure (weeks 1-6)): 2.09 ng ZEN/g
mean ZEN strength in the descending colon, on average ([1]; 40 μg ZEN/kg BW orally daily, first three weeks of exposure): 6.4 ng ZEN/g
concentration at 4 week of exposure ([1]; female, pig, descending colon tissue, po, 40 μg ZEN/kg BW orally daily, week 4): 205 ng/g
concentration at 5 week of exposure ([1]; female, pig, descending colon tissue, po, 40 μg ZEN/kg BW orally daily, week 5): 177 ng/g
concentration at 6 week of exposure ([1]; female, pig, descending colon tissue, po, 40 μg ZEN/kg BW orally daily, week 6): 112 ng/g
difference in mean ZEN levels between ascending and descending colon ([1]; week 4): 200.33 ng ZEN/g
difference in ZEN concentration in the descending colon ([1]; week 4 vs week 1): 200.31 ng ZEN/g
difference in ZEN concentration in the descending colon ([1]; week 4 vs week 2): 198.21 ng ZEN/g
difference in ZEN concentration in the descending colon ([1]; week 4 vs week 3): 197.44 ng ZEN/g
difference in mean ZEN levels between ascending and descending colon ([1]; week 5): 173.61 ng ZEN/g
difference in ZEN concentration in the descending colon ([1]; week 5 vs week 1): 172.31 ng ZEN/g
difference in ZEN concentration in the descending colon ([1]; week 5 vs week 2): 170.21 ng ZEN/g
difference in mean ZEN levels between ascending and descending colon ([1]; week 6): 109.55 ng ZEN/g
clinical signs of zearalenone mycotoxicosis [2]: No clinical signs
no-observed-adverse-effect level (NOAEL) [3]: 40 μg ZEN/kg BW
solubility in fats and alkaline aqueous solutions ([4]; fats and alkaline aqueous solutions): soluble in fats and alkaline aqueous solutions
solubility in water ([4]; water): almost insoluble in water
difference in GSTπ1 gene expression between groups C and E (GSTπ1 gene; ascending colon, week 1, higher in group C): 0.35
difference in GSTπ1 gene expression between groups C and E (GSTπ1 gene; descending colon, week 2, lower in group E): 0.27
difference in GSTπ1 gene expression between groups C and E (GSTπ1 gene; descending colon, week 6, lower in group E): 0.34
average expression of the GSTπ1 gene during the entire experiment (expression ratio vs control at start = 1.00) (GSTπ1 gene; ascending colon, group C 0.96): 0.39
average expression of the GSTπ1 gene during the entire experiment (expression ratio vs control at start = 1.00) (GSTπ1 gene; descending colon, group C 1.07): 0.94

C[C@H]1CCC[C@H](O)CCC/C=C/c2cc(O)cc(O)c2C(=O)O1 [α-ZEL, α-zearalenol]
ZEN metabolites in the distal colon [1]: no ZEN metabolites (α-ZEL and β-ZEL) were found

C[C@H]1CCC[C@@H](O)CCC/C=C/c2cc(O)cc(O)c2C(=O)O1 [β-ZEL, β-zearalenol]
ZEN metabolites in the distal colon [1]: no ZEN metabolites (α-ZEL and β-ZEL) were found
